Among the data in US6017956A, “N,N-disubstituted amic acid derivatives” (Banyu Pharmaceutical Co., Ltd., priority 1994, dated 2000) are IC50 values, retold here.

Test [1] deals with farnesyl-modification of Ras protein in NIH3T3 cells transformed by activated ras gene. Kind of test: Inhibitory activities against farnesyl-modification of Ras protein in NIH3T3 cells transformed by activated ras gene. The conditions noted are these: Mus musculus, 24 hours, proportion of non-farnesyl-modified Ras protein by densitometer, read-out: 50% inhibitory concentrations against farnesyl-modification of Ras protein, IC50. The format is cell-based. On the procedure:
PHARMACOLOGICAL TEST EXAMPLE 2
(Inhibitory Activities Against Farnesyl-Modification of Ras Protein)
Using the compounds of the present invention, inhibitory activities against farnesyl-modification of Ras protein in NIH3T3 cells transformed by activated ras gene, were measured.
The NIH3T3 cells transformed by activated ras gene, were seeded on a culture plate and cultured for 3 days. Then, a compound of the present invention in a predetermined concentration was added to the culture. In accordance with the method disclosed in J. Biol. Chem., vol. 268, p. 18415 (1993), the cells were cultured for 24 hours and then taken off from the plate, and the cells were dissolved. After centrifugal separation for 5 minutes under 12000 g, the supernatant was used as a cell extract. The cell extract was subjected to SDS polyacrylamide gel electrophoresis to separate farnesyl-modified Ras protein and non-farnesyl-modified Ras protein. The protein on the gel was transferred onto a nitrocellulose membrane, and an anti-Ras protein antibody was reacted as a probe (primary antibody reaction). An anti-primary antibody, a peroxidase inclusion (secondary antibody), was reacted, and then Ras protein was detected by a chemical fluorescence enhancing kit. The proportion of non-farnesyl-modified Ras protein was quantified by a densitometer and taken as the inhibitory activity.
The 50% inhibitory concentrations (IC50 values) of the compounds of the present invention against farnesyl-modification of Ras protein as shown in Table

Test [2] addresses T1, protein-farnesyl transferase (PFT) (Rattus norvegicus, UniProt Q02293+Q04631).
T1 construct: PFT derived from rat brain; from tissue; host or cells: rat brain, soluble fraction (30-50% ammonium sulfate cut, Q-Sepharose fraction)
Kind of test: Inhibitory activities against protein-farnesyl transferase. The following applies: PFT derived from rat brain; prenyl acceptor H-ras protein or biotin-added Lys-Thr-Ser-Cys-Val-Ile-Met; 37° C., 20 minutes; read-out: 50% inhibitory concentrations against PFT activities, IC50. The format is biochemical. On the procedure:
Inhibitory activities against protein-farnesyl transferase
PFT was separated in such a manner that a soluble fraction of rat's brain was fractionated by means of 30%-50% saturated ammonium sulfate, further dialyzed and then subjected to column chromatography by Q-cephalose™ (manufactured by Pharmacia) (Reiss et al, Cell, vol. 62, p. 81-88 (1990)).
(2) Method for measuring PFT activities
Measurement of PFT activities was conducted by using, as a prenyl acceptor, H-ras protein or a substance that biotin was added to N-terminal of a peptide corresponding to a 7 amino acid residue at C terminal of K-rasB protein (biotin-added Lys-Thr-Ser-Cys-Val-Ile-Met) and, as a prenyl doner, [^3 H]-labeled farnesylpyrophosphate (FPP) (Reiss et al, Methods: A Companion to a Methods in Enzymology, vol. 1, No. 3, p. 241-245 (1990)). […]
The enzymatic reaction product containing H-ras protein as the prenyl acceptor, was analyzed by SDS-PAGE (sodium dodecylsulfate/polyacrylamide gel electrophoresis). […]
The measurement of PFT activities using H-ras protein as the prenyl receptor, was also analyzed by a rapid separate method. […]

With `CC(C)OC(=O)C(CCC(=O)O)=C(O)C(=O)N(Cc1ccc2ccccc2c1)[C@H](C)[C@H](Cc1ccc(C(=O)Nc2ccccc2)o1)c1ccc([N+](=O)[O-])cc1` (racemic) [Example 30, 5-hydroxy-4-isopropoxycarbonyl-5-[N-[(1RS,2RS)-1-methyl-2-(4-nitrophenyl)-3-{5-(phenylcarbamoyl)-2-furyl}propyl]-N-(2-naphthylmethyl)carbamoyl]-4-pentenoic acid], the IC50 in test [1] is 21 nM.

With `C[C@H]([C@H](Cc1ccc(C(=O)Nc2ccccc2)o1)c1ccc([N+](=O)[O-])cc1)N(Cc1ccc2ccccc2c1)C(=O)C(O)=C(CC(=O)O)C(=O)OC(C)(C)C` (racemic) [Example 25, 3-tert-butoxycarbonyl-4-hydroxy-4-[N-[(1RS,2RS)-1-methyl-2-(4-nitrophenyl)-3-{5-(phenylcarbamoyl)-2-furyl}propyl]-N-(2-naphthylmethyl)carbamoyl]-3-butenoic acid], in test [1], the IC50 came out at 21 nM.

With `C[C@H]([C@H](Cc1ccc(C(=O)Nc2ccccc2)o1)c1ccc([N+](=O)[O-])cc1)N(Cc1ccc2ccccc2c1)C(=O)CC(CC(=O)O)C(=O)O` (stereo partly drawn) [Example 1, N-[(1-RS,2RS)-1-methyl-2-(4-nitrophenyl)-3-{5-(phenylcarbamoyl)-2-furyl}propyl]-N-(2-naphthylmethyl)carbamoylmethylsuccinic acid], in test [2], the IC50 amounted to 0.6 nM.

As to `C=CCOC(=O)C(CC(=O)O)=C(O)C(=O)N(Cc1ccc2ccccc2c1)[C@H](C)[C@H](Cc1ccc(C(=O)Nc2ccccc2)o1)c1ccc2c(c1)OCO2` (racemic) [Example 29, 3-allyloxycarbonyl-4-hydroxy-4-[N-[(1RS,2RS)-1-methyl-2-(3,4-methylenedioxyphenyl)-3-{5-(phenylcarbamoyl)-2-furyl}propyl]-N-(2-naphthylmethyl)carbamoyl]-3-butenoic acid], the IC50 in test [1] was 4.7 nM.

In the case of `C[C@H]([C@H](Cc1cccc(C(=O)Nc2ccccc2)c1)c1ccc(Cl)cc1)N(Cc1ccc2ccccc2c1)C(=O)CC(CC(=O)O)C(=O)O` (stereo partly drawn) [Example 10, N-{(1RS,2RS)-2-(4-chlorophenyl)-1-methyl-3-(3-phenylcarbamoylphenyl)propyl}-N-(2-naphthylmethyl)carbamoylmethylsuccinic acid], the IC50 in test [2] was determined as 1.8 nM.
